In the kinase profiling compilation of Christmann-Franck et al. (2016):

Legend:
Assay in all cases: radiometric filter-binding kinase assay, Kinase HotSpot
Conditions in all cases: compound 0.5 µM; ATP 10 µM
[1] = target: ABL1 (human) (UniProt P00519)
[2] = target: ACVR1B (human) (UniProt P36896)
[3] = target: AKT2 (human) (UniProt P31751)
[4] = target: AXL (human) (UniProt P30530)
[5] = target: CAMK2B (human) (UniProt Q13554)
[6] = target: CAMK4 (human) (UniProt Q16566)
[7] = target: CDC42BPA (human) (UniProt Q5VT25)
Sequence of CDC42BPA (human) (Q5VT25 whole entry, looked up): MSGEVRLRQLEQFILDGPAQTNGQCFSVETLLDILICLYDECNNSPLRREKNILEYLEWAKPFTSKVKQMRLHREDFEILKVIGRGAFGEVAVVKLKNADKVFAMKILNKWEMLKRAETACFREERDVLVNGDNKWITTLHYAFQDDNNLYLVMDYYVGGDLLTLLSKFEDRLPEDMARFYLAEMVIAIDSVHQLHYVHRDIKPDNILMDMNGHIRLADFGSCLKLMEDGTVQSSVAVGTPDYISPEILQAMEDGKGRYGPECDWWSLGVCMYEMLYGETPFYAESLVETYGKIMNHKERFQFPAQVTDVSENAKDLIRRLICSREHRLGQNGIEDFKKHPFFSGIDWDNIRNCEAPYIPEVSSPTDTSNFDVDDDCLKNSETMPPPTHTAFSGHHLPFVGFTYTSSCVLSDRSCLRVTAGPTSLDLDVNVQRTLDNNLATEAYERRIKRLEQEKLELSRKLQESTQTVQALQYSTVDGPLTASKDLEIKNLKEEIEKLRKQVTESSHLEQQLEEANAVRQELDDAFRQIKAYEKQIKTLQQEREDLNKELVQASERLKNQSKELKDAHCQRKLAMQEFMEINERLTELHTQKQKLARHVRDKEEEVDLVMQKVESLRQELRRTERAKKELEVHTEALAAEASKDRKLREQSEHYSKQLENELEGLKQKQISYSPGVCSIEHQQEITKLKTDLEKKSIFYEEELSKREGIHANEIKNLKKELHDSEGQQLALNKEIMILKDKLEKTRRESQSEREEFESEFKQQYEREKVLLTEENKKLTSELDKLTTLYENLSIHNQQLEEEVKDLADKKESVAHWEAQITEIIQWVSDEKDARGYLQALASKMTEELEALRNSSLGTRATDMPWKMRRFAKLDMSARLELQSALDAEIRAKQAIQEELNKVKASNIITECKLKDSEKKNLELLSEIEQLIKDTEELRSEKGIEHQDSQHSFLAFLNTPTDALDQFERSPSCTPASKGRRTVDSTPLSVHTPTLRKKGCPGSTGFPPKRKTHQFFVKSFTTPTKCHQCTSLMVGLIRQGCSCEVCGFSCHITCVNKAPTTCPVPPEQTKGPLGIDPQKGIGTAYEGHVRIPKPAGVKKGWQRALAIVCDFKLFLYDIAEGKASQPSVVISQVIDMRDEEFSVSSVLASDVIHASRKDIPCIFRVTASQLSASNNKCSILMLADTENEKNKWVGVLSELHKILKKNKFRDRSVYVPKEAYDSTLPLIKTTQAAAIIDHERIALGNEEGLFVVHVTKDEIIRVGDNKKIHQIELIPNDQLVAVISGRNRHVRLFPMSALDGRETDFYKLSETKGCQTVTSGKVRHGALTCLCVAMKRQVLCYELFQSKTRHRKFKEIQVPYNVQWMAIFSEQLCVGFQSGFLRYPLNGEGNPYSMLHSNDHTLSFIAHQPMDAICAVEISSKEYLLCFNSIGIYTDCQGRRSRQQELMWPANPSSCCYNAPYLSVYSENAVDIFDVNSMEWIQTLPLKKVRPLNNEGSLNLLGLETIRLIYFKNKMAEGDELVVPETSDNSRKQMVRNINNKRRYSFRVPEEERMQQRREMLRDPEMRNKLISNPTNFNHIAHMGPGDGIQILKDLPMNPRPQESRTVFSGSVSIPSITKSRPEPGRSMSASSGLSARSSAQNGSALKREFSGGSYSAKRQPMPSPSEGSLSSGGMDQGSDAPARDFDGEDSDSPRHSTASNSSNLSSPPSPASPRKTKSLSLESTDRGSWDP

[8] = target: CDK6 CCND1 (human) (UniProt Q00534+P24385)
[9] = target: CHUK (human) (UniProt O15111)
[10] = target: CLK3 (human) (UniProt P49761)
Sequence of CLK3 (human) (P49761 whole entry, looked up): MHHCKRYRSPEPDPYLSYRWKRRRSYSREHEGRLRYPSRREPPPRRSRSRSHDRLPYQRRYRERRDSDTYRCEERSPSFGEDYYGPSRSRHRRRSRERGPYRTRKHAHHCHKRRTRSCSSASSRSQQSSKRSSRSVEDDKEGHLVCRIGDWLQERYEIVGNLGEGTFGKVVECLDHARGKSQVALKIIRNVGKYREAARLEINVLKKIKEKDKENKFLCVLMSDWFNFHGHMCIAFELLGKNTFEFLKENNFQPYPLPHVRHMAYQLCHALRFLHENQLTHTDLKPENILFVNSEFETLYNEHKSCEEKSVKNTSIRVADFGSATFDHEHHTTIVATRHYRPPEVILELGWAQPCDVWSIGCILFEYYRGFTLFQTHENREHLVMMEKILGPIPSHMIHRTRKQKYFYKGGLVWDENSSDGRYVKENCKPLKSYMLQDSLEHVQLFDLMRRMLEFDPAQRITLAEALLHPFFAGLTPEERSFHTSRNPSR

[11] = target: CSF1R (human) (UniProt P07333)
[12] = target: CSNK1D (human) (UniProt P48730)
[13] = target: DYRK1B (human) (UniProt Q9Y463)
[14] = target: FES (human) (UniProt P07332)
[15] = target: FGFR1 (human) (UniProt P11362)
[16] = target: FGR (human) (UniProt P09769)
[17] = target: FLT3 (human) (UniProt P36888)
[18] = target: GRK7 (human) (UniProt Q8WTQ7)
[19] = target: GSG2 (human) (UniProt Q8TF76)
[20] = target: INSRR (human) (UniProt P14616)
[21] = target: IRAK1 (human) (UniProt P51617)
[22] = target: MAPK3 (human) (UniProt P27361)
Sequence of MAPK3 (human) (P27361 whole entry, looked up): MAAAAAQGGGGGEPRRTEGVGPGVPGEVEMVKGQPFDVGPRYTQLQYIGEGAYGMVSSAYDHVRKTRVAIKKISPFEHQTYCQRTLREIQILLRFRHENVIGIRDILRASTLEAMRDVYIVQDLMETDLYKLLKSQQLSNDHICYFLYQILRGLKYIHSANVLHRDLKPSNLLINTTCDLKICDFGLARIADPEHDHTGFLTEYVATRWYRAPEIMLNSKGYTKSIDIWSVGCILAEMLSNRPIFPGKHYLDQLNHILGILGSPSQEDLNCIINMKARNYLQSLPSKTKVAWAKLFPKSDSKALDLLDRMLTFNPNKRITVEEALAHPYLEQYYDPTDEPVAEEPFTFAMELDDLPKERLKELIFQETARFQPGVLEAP

[23] = target: MAPK9 (human) (UniProt P45984)
[24] = target: MARK1 (human) (UniProt Q9P0L2)
[25] = target: MARK2 (human) (UniProt Q7KZI7)
Sequence of MARK2 (human) (Q7KZI7 whole entry, looked up): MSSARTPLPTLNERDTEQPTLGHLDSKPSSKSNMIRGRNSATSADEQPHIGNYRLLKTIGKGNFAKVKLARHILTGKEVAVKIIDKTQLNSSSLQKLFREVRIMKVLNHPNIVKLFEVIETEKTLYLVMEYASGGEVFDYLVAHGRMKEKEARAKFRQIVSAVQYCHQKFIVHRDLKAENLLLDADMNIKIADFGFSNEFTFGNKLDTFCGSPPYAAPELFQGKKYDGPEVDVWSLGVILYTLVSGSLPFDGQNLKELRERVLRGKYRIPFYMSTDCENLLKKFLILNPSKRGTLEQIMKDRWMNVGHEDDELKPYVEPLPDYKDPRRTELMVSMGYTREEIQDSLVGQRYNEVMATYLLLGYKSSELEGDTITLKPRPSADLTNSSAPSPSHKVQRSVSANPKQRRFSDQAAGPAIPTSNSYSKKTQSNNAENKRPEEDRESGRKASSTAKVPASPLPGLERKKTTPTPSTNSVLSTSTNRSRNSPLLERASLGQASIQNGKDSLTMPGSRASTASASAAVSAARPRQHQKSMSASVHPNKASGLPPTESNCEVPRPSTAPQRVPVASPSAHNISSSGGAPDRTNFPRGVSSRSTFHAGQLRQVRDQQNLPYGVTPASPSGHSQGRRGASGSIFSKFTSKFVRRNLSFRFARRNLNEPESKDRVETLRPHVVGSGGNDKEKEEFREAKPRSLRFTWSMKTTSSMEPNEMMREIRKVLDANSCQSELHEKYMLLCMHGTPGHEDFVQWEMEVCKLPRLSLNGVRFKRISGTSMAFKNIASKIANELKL

[26] = test system: MKNK1 (human), Q9BUB5 [T385D; 165-205 del]
[27] = target: MLTK (human) (UniProt Q9NYL2)
[28] = target: MYLK (human) (UniProt Q15746)
[29] = target: NEK3 (human) (UniProt P51956)
[30] = target: NEK7 (human) (UniProt Q8TDX7)
[31] = target: NEK9 (human) (UniProt Q8TD19)
Sequence of NEK9 (human) (Q8TD19 whole entry, looked up): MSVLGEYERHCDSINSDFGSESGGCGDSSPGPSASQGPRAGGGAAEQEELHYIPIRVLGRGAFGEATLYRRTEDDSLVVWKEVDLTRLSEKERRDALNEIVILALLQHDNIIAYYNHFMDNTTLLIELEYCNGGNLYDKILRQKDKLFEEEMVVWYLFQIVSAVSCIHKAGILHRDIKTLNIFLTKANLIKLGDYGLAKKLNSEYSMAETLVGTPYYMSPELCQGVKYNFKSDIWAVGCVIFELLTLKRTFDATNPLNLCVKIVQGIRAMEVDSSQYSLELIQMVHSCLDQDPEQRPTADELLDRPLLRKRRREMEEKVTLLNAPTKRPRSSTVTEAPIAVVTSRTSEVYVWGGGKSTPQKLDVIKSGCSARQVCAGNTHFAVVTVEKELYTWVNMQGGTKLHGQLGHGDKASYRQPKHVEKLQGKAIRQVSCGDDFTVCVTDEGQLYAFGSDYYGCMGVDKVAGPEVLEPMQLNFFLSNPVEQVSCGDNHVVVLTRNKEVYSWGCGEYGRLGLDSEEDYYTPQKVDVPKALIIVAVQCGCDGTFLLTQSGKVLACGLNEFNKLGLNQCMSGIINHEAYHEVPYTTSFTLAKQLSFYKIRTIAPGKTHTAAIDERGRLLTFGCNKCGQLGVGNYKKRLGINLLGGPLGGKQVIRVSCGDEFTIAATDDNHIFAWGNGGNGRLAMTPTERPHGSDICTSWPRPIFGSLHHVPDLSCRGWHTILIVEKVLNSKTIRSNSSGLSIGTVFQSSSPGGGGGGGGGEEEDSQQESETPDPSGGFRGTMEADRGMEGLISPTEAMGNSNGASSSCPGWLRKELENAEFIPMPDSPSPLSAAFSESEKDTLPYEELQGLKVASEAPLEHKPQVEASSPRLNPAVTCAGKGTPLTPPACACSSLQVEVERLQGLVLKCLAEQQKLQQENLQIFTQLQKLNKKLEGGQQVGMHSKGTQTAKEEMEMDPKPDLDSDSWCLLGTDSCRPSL

[32] = target: PDGFRA (human) (UniProt P16234)
[33] = target: PHKG1 (human) (UniProt Q16816)
[34] = target: PLK1 (human) (UniProt P53350)
Sequence of PLK1 (human) (P53350 whole entry, looked up): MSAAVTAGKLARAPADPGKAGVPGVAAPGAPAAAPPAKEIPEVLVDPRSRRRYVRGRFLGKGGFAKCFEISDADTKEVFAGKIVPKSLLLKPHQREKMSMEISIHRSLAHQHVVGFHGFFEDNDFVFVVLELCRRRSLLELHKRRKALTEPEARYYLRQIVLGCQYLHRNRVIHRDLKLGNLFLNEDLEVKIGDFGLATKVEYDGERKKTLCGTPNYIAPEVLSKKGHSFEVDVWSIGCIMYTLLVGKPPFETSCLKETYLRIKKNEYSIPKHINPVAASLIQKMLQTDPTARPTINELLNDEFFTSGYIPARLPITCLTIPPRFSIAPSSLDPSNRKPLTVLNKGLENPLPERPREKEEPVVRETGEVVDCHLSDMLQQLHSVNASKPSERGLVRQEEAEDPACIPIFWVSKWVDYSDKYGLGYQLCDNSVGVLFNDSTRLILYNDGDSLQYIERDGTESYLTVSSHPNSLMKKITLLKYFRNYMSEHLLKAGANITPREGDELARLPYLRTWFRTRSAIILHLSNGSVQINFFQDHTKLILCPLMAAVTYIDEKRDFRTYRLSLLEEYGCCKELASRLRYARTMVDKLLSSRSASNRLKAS

[35] = target: PRKACA (human) (UniProt P17612)
[36] = target: PRKCB1 (human) (UniProt P05771)
[37] = target: PTK6 (human) (UniProt Q13882)
[38] = target: SLK (human) (UniProt Q9H2G2)
[39] = target: SRPK3 (human) (UniProt Q9UPE1)
[40] = target: STK25 (human) (UniProt O00506)
[41] = target: TEK (human) (UniProt Q02763)
[42] = target: WNK3 (human) (UniProt Q9BYP7)

SMILES: COc1ccc(Cl)cc1NC(=O)Nc1cc(C)nc2ccccc12
- residual activity [1]: 99.5%
- residual activity [2]: 97.4%
- residual activity [3]: 94.9%
- residual activity [4]: 94%
- residual activity [5]: 103%
- residual activity [6]: 93.6%
- residual activity [7]: 98.8%
- residual activity [8]: 89.8%
- residual activity [9]: 100%
- residual activity [10]: 97.5%
- residual activity [11]: 94.8%
- residual activity [12]: 98.7%
- residual activity [13]: 99.7%
- residual activity [14]: 101%
- residual activity [15]: 86.1%
- residual activity [16]: 92%
- residual activity [17]: 94.4%
- residual activity [18]: 101%
- residual activity [19]: 95.7%
- residual activity [20]: 100%
- residual activity [21]: 91.2%
- residual activity [22]: 94.6%
- residual activity [23]: 105%
- residual activity [24]: 102%
- residual activity [25]: 99.5%
- residual activity [26]: 101%
- residual activity [27]: 99.7%
- residual activity [28]: 95.7%
- residual activity [29]: 114%
- residual activity [30]: 103%
- residual activity [31]: 104%
- residual activity [32]: 88.5%
- residual activity [33]: 102%
- residual activity [34]: 96.9%
- residual activity [35]: 101%
- residual activity [36]: 105%
- residual activity [37]: 101%
- residual activity [38]: 98.8%
- residual activity [39]: 104%
- residual activity [40]: 101%
- residual activity [41]: 96.8%
- residual activity [42]: 99.9%

SMILES: COc1ccc(C(=O)Nc2sc3c(c2C(N)=O)CCCC3)cc1OC
- residual activity [1]: 101%
- residual activity [2]: 101%
- residual activity [3]: 97%
- residual activity [4]: 84.4%
- residual activity [5]: 99.9%
- residual activity [6]: 95.7%
- residual activity [7]: 81.8%
- residual activity [8]: 95.1%
- residual activity [9]: 83.3%
- residual activity [10]: 63%
- residual activity [11]: 90.2%
- residual activity [12]: 103%
- residual activity [13]: 104%
- residual activity [14]: 102%
- residual activity [15]: 94.8%
- residual activity [16]: 90%
- residual activity [17]: 42%
- residual activity [18]: 95.5%
- residual activity [19]: 82.8%
- residual activity [20]: 99.7%
- residual activity [21]: 79.8%
- residual activity [22]: 95.2%
- residual activity [23]: 118%
- residual activity [24]: 97.9%
- residual activity [25]: 98.7%
- residual activity [26]: 98.2%
- residual activity [27]: 93.8%
- residual activity [28]: 41.2%
- residual activity [29]: 95.8%
- residual activity [30]: 99%
- residual activity [31]: 94.6%
- residual activity [32]: 96.4%
- residual activity [33]: 94.3%
- residual activity [34]: 99%
- residual activity [35]: 102%
- residual activity [36]: 91.8%
- residual activity [37]: 97.8%
- residual activity [38]: 92.5%
- residual activity [39]: 92%
- residual activity [40]: 91.7%
- residual activity [41]: 96.4%
- residual activity [42]: 96.4%

SMILES: Cc1cncc2cccc(S(=O)(=O)N3CCCN(C(=O)CN)C[C@H]3C)c12
- residual activity [1]: 99.3%
- residual activity [2]: 100%
- residual activity [3]: 97.2%
- residual activity [4]: 98.8%
- residual activity [5]: 92.4%
- residual activity [6]: 90.6%
- residual activity [7]: 95.1%
- residual activity [8]: 99.8%
- residual activity [9]: 105%
- residual activity [10]: 95.9%
- residual activity [11]: 95.6%
- residual activity [12]: 107%
- residual activity [13]: 101%
- residual activity [14]: 102%
- residual activity [15]: 85.7%
- residual activity [16]: 94.1%
- residual activity [17]: 90.1%
- residual activity [18]: 88.8%
- residual activity [19]: 99.4%
- residual activity [20]: 103%
- residual activity [21]: 135%
- residual activity [22]: 103%
- residual activity [23]: 106%
- residual activity [24]: 89.7%
- residual activity [25]: 89.1%
- residual activity [26]: 90.5%
- residual activity [27]: 108%
- residual activity [28]: 103%
- residual activity [29]: 91.1%
- residual activity [30]: 103%
- residual activity [31]: 98.6%
- residual activity [32]: 93.5%
- residual activity [33]: 65.3%
- residual activity [34]: 101%
- residual activity [35]: 99.5%
- residual activity [36]: 99.4%
- residual activity [37]: 87.8%
- residual activity [38]: 90.4%
- residual activity [39]: 99.9%
- residual activity [40]: 119%
- residual activity [41]: 98.6%
- residual activity [42]: 97.3%
